Laboratory results published in PubChem BioAssay (NCI).
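1) Cells in 96-well plates. 2) Compound, 48 h, 5 concentrations. 3) Linear interpolation between surrounding doses. 4) Unreached endpoint = highest concentration. Definition used: TGI = concentration required for complete inhibition of growth.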

Experiments:
Assay in all cases: NCI anticancer screen, dose series, 48 h
A549 NSCLC = tested on: A549 NSCLC
CAKI-1 renal = tested on: CAKI-1 renal
MCF7 breast = tested on: MCF7 breast
NCI-H460 lung = tested on: NCI-H460 lung
NCI-H522 lung = tested on: NCI-H522 lung
OVCAR-4 ovarian = tested on: OVCAR-4 ovarian
RPMI-8226 leukemia = tested on: RPMI-8226 leukemia
SK-MEL-2 melanoma = tested on: SK-MEL-2 melanoma
SK-MEL-28 melanoma = tested on: SK-MEL-28 melanoma
SNB-19 CNS = tested on: SNB-19 CNS
T-47D breast = tested on: T-47D breast
UACC-62 melanoma = tested on: UACC-62 melanoma
SF-268 CNS = tested on: SF-268 CNS

SMILES | TGI (A549 NSCLC) | TGI (CAKI-1 renal) | TGI (MCF7 breast) | TGI (NCI-H460 lung) | TGI (NCI-H522 lung) | TGI (OVCAR-4 ovarian) | TGI (RPMI-8226 leukemia) | TGI (SK-MEL-2 melanoma) | TGI (SK-MEL-28 melanoma) | TGI (SNB-19 CNS) | TGI (T-47D breast) | TGI (UACC-62 melanoma) | TGI (SF-268 CNS)
Cn1c2ccccc2c2c3c(c4c5ccccc5n(C)c4c21)C(=O)N(c1ccccc1)C3=O | > 100 µM | > 100 µM | > 100 µM | > 100 µM | > 100 µM | > 100 µM | > 100 µM | > 100 µM | > 100 µM | > 100 µM | > 100 µM | > 100 µM | 
Fc1ccc2c(c1)nc1n2C(c2c(F)cccc2F)SC1 (centres undefined) | > 100 µM | > 100 µM | > 100 µM | > 100 µM | > 100 µM | > 100 µM | > 100 µM | > 100 µM | > 100 µM | > 100 µM | > 100 µM | > 100 µM | > 100 µM
CC(C)(C)OC(=O)NNCC(O)COc1ccccc1 (centres undefined) | > 100 µM | > 100 µM | > 100 µM | > 100 µM | > 100 µM | > 100 µM | > 100 µM | > 100 µM | > 100 µM | > 100 µM | > 100 µM | > 100 µM | > 100 µM
O=c1[nH]c2ccc(C(F)(F)F)cc2nc1C(F)(F)F | > 100 µM | 82.1 µM | 80.3 µM | > 100 µM | 47.6 µM | > 100 µM | > 100 µM | 43.1 µM | > 100 µM | > 100 µM | 45.9 µM | > 100 µM | > 100 µM
Cc1nccn1S(=O)(=O)c1ccc(Cl)cc1 | > 100 µM | > 100 µM | > 100 µM | > 100 µM | > 100 µM | > 100 µM | > 100 µM | > 100 µM | > 100 µM | > 100 µM | > 100 µM | > 100 µM | > 100 µM
COc1ccc(/C=C(/c2ccc(OC)cc2)c2c(Cl)cc(Cl)c(/C(=C\c3ccc(OC)cc3)c3ccc(OC)cc3)c2N=Nc2ccccc2)cc1 | > 100 µM | > 100 µM | > 100 µM | > 100 µM | > 100 µM | > 100 µM | > 100 µM | > 100 µM | > 100 µM | > 100 µM | > 100 µM | > 100 µM | > 100 µM
COc1ccc(/C=C2\OC(=O)C(Cl)=C2c2ccc(OC)c(Cl)c2)cc1 | > 100 µM | 56.8 µM | 46.1 µM | 59 µM | 79 µM | 51.8 µM | 81.8 µM | > 100 µM | > 100 µM | > 100 µM | > 100 µM | 80 µM | 44.3 µM
CCOC(=O)C1=C(C)N(Cc2ccccc2)C2(O)C(OC)CC(=O)C3C(=O)N(c4ccccc4)C(=O)C132 (centres undefined) | > 100 µM | 64.8 µM | 34.5 µM | > 100 µM | 26.3 µM | 18.4 µM | > 100 µM | 59.1 µM | 23.3 µM | 37.6 µM | 30.5 µM | 21.6 µM | > 100 µM
OCC(S)CS.[Bi] (centres undefined) | > 100 µM | 24.9 µM | > 100 µM | > 100 µM | 12.9 µM | 69.2 µM | 28.3 µM | 30 µM | 28.3 µM | 37.3 µM | 31.5 µM | 38.5 µM | 28.4 µM
CCC(C)N1CN(c2ccccc2)C2(CCN(CCCC3(c4ccc(F)cc4)OCCO3)CC2)C1=O (centres undefined) | 23.2 µM | > 68.3 µM | 7.58 µM | 30.8 µM | 10.2 µM | > 49.4 µM | 4 µM | 28.7 µM | 34.4 µM | 34.6 µM | 42.5 µM | > 55.2 µM | 48.5 µM
Cc1ccc(C)c2c1n1c(=O)n(C)c(=O)n21 | > 100 µM | > 100 µM | > 100 µM | > 100 µM | > 100 µM | > 100 µM | > 100 µM | > 100 µM | > 100 µM | > 100 µM | > 100 µM | > 100 µM | > 100 µM
COC(=O)C(CNC(=O)/C=C/c1ccc(OC(C)=O)c(OC(C)=O)c1)NC(=O)/C=C/c1ccc(OC(C)=O)c(OC(C)=O)c1 (centres undefined) | > 100 µM | > 100 µM | > 100 µM | > 100 µM | > 100 µM | > 100 µM | > 100 µM | > 100 µM | > 100 µM | > 100 µM | > 100 µM | > 100 µM | > 100 µM
C=C1CC(O)C2C(=C)C(=O)OC2C2C(C)C(=O)CC12 (centres undefined) | 41 µM | 16.6 µM | 26.2 µM | 58 µM | 19.9 µM | 37.8 µM | 39.2 µM | 38.2 µM | 46.5 µM | 38.5 µM | 73 µM | 29.1 µM | 45.7 µM
CSc1c(C)n([O-])c2cc(Cl)c(Cl)cc2[n+]1=O | > 100 µM | 32.5 µM | 45 µM | > 100 µM | 29.3 µM | 30.6 µM | 34.9 µM | 46 µM | 39 µM | > 100 µM | 50 µM | 28.9 µM | 36.6 µM
O=C1Nc2ccccc2SC1=C(C(=O)c1ccccc1)C(=O)c1ccccc1 | > 100 µM | > 100 µM | > 100 µM | > 86.8 µM | 87.1 µM | > 100 µM | > 100 µM | 67.1 µM | > 100 µM | > 100 µM | > 100 µM | 51.6 µM | > 100 µM
CC1=NN2CCC(=O)N=C2S1 | > 100 µM | > 100 µM | > 100 µM | > 100 µM | > 100 µM | > 100 µM | > 100 µM | > 100 µM | > 100 µM | > 100 µM | > 100 µM | > 100 µM | > 100 µM
COc1ccc(/N=N/C(=NNC(=O)c2ccc(C)cc2)c2ccc(N(C)C)cc2)cc1 | > 100 µM | > 100 µM | 56.1 µM | > 100 µM | 97.9 µM | > 100 µM | > 70.9 µM | > 100 µM | > 100 µM | > 100 µM | > 33.8 µM | > 83.1 µM | > 100 µM
CCN(CCC#N)C(=O)Nc1ccccc1 | > 100 µM | > 100 µM | > 100 µM | > 100 µM | > 100 µM | > 100 µM | > 100 µM | > 100 µM | > 100 µM | > 100 µM | > 100 µM | > 100 µM | 
Cn1c(-c2c(C3=CC(=O)N(c4ccccc4)C3=O)c3ccccc3n2C)cc2ccccc21 | > 100 µM | > 100 µM | > 100 µM | > 100 µM | > 100 µM | > 100 µM | > 100 µM | > 100 µM | > 100 µM | > 100 µM | > 100 µM | > 100 µM | 
CN1C/C(=C\c2cccs2)C(=O)/C(=C/c2cccs2)C1 | > 100 µM | > 100 µM | > 100 µM | > 100 µM | > 100 µM | 55.4 µM | 32.3 µM | 48.9 µM | > 100 µM | > 100 µM | 92.6 µM | > 100 µM | > 100 µM
O=C(O)C1CSC2(CCCN(Cc3ccccc3)C2)N1 (centres undefined) | > 100 µM | > 100 µM | > 100 µM | > 100 µM | > 100 µM | > 100 µM | > 34.4 µM | > 100 µM | > 100 µM | > 100 µM | > 100 µM | > 100 µM | > 100 µM
CC1=NN(c2nc(N)nc(-c3cc4ccccc4oc3=N)n2)C(C)(C)C1 | 41.3 µM | 31.1 µM | > 100 µM | 34.2 µM | 39.9 µM | 31.2 µM | 42.6 µM | 41.8 µM | 30.5 µM | > 100 µM | 34.3 µM | 34.1 µM | 36.7 µM
COC(=O)/C=C\C(C#N)(C#N)N=Cc1ccc(Br)cc1 | > 74.8 µM | 5.47 µM | 17.1 µM | 40.5 µM | 2.95 µM | 23.7 µM | 5.74 µM | 44 µM | 32.1 µM | 55.2 µM | 14 µM | 16.5 µM | 31.1 µM
NC(=S)NS(=O)(=O)c1ccc(Cl)cc1 | > 100 µM | > 100 µM | > 100 µM | > 100 µM | > 100 µM | > 100 µM | > 100 µM | > 100 µM | > 100 µM | > 100 µM | > 100 µM | > 100 µM | > 100 µM
